Values quoted from earlier work as cited in patent US20240180852A1, “TREATMENT FOR MALIGNANT PLEURAL EFFUSION IN HUMANS” (Signpath Pharma, Inc., priority 2021, published 2024).

Legend:
[1] = in vivo

- solubility: low solubility
- bioavailability [1]: low bioavailability
SMILES: COc1cc(C=CC(=O)CC(=O)C=Cc2ccc(O)c(OC)c2)ccc1O [curcumin, 1,7-bis(4-hydroxy-3-methoxyphenyl)-1,6-heptadiene-3,5-dione]
